Source: the METLIN SMRT retention time set (Domingo-Almenara et al. 2019)

test: gradient 5% acetonitrile 3 min, to 50% in 2 min, to 85% in 15 min, held 3 min, 100 µL/min; conditions: column: Zorbax Extend-C18 2.1 x 50 mm; eluents: water / acetonitrile, 0.1% formic acid
How it was run: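 Data were gathered over 3 months by HPLC coupled to a quadrupole time-of-flight mass spectrometer, operated in positive and negative ionization mode. Mixtures of ~100 pure standards ran on a Zorbax Extend-C18 column (2.1 × 50 mm, 1.8 μm) at 100 μL/min, with water and acetonitrile each containing 0.1% formic acid and dead and dwell volumes of 40 μL and 900 μL. Retention time was read from adduct peaks picked by computer and checked manually.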

RP-LC retention time [s]	SMILES
838	COc1ccc(CC(=O)Nc2ccc(-c3nc(Cn4cccn4)c(C)o3)cc2)cc1
714	Cc1ccc(CNC(=O)CCC2CCN(c3cc(NC4CC4)ncn3)CC2)cc1
754	CCc1noc(NC(C)=O)c1-c1ccc(OC)c(S(=O)(=O)Nc2cccc(OC)c2)c1
1100	CCN1C(=O)COc2ccc(-c3noc(-c4ccc(CS(=O)(=O)c5ccc(C)cc5)cc4)n3)cc21
1000	COc1cccc(CNC(=O)N2c3ccccc3CC2c2nc(C(C)C)no2)c1 (centres undefined)
889	O=C(NCc1nc(-c2ccc(N3CCCC3)cc2)no1)c1ccco1
605	CCOc1ccc(CNc2ccc3[nH]c(=O)[nH]c3c2)cc1
739	CCc1ccc(CNC(=O)Cc2nnc(-c3cnccn3)o2)cc1
924	Cc1cccc(-c2nc(Cc3noc(CNC(=O)c4ccccc4)n3)c(C)o2)c1
1050	O=C(Nc1cccc(F)c1)c1n[nH]nc1Nc1cccc(F)c1
1060	CCOC(=O)Cn1c(=O)c2cnc(-c3ccc(C)cc3)nc2n(C)c1=O
714	COc1cccc(-n2cc(C(=O)OCc3ccncc3)c3ccccc3c2=O)c1
857	CCc1ccccc1NC(=O)Cn1c(NCCCc2ccccc2)nc(C)cc1=O
589	Cc1csc(NC(=O)CSc2ccc(-c3cccnc3)nn2)n1
877	Cc1ccc(-n2cccc2CC(=O)NCc2ccc(N3CCOCC3)cc2)cc1
652	CCN(CC)C(=O)c1ccc2c(c1)N(CC(=O)NCc1ccco1)C(=O)CO2

RP-LC retention time [s]	SMILES
706	CN(C)c1cccc(-c2nc(-c3ccc4c(c3)nnn4CCN3CCOCC3)no2)c1
721	Cn1c(SCc2ccc([N+](=O)[O-])cc2)nnc1-c1ccc2c(c1)OCO2
939	CCCn1ccc2sc(C)c(C(=O)NCc3cccc(OCC)c3)c2c1=O
788	CN1C(=O)c2cccnc2Sc2cc(NC(=O)c3ccc(Br)o3)ccc21
701	Cc1ccccc1CNS(=O)(=O)c1cc(-c2[nH]ncc2C(=O)N(C)C)oc1C
629	Cc1cc(=O)n(CC(=O)Nc2ccc3c(c2)OCO3)c(N2CCCC2)n1
651	COC(=O)c1cnc(N2CCN(c3cc(Cl)ccc3C)CC2)c2ccccc12
692	COCCCNC(=O)Cn1c(=O)n(-c2ccc(C)cc2)c2ncccc21
734	CCCOC(=O)c1cnc2nc(C)ccc2c1NCc1ccc2c(c1)OCO2
541	COc1cccc(CNC(=O)c2cn3cc(C)ccc3n2)c1OC
816	COCCN1C(=O)CCc2cc(NS(=O)(=O)c3ccc(C)cc3C)ccc21
1130	Cc1ccc(Nc2nc(-c3ccc(C(C)C)cc3)cs2)nc1
820	COc1ccc(-c2c(C)noc2NC(C)=O)cc1S(=O)(=O)Nc1ccc(Cl)cc1C
1050	COc1ccc(-c2noc(CN3C(=O)COc4ccc(Cl)cc43)n2)cc1
975	CCc1ccc(NC(=O)c2c(C)sc3ncnc(N4CCCC4)c23)cc1
597	COc1ccc(CC(=O)Nc2c(-c3ccc(F)cc3)nc3ccccn23)cc1OC

Second part, the molecule before the results:

SMILES	RP-LC retention time [s]
CC1(C(=O)NCc2ccccc2)CN(S(C)(=O)=O)CC(=O)N1Cc1ccccc1Cl (centres undefined)	778
Cc1cc(NC(=O)c2cn3c(n2)CSCC3)ccc1F	743
O=C(NC1COc2ccccc2C1)N1CCN(c2ccccn2)CC1 (centres undefined)	616
Cc1ccc(N2CCN(C(=O)C3CC(=O)N(c4cccc(NC(=O)C(C)C)c4)C3)CC2)cc1 (centres undefined)	802
CN(C)c1cccc(C(=O)N2CCC3(C2)C(=O)N(C)c2ccccc23)c1 (centres undefined)	710
CC(C)n1cnc(S(=O)(=O)N2CCC(C(=O)NCCCc3ccccc3)CC2)c1	764
Cn1nnc2ccc(-c3noc(-c4ccc(Cl)cc4)n3)cc21	1090
COc1ccc(C2Cn3nnc(-c4nc(-c5ccccc5F)no4)c3CO2)cc1 (centres undefined)	1090
CN1c2cc(F)ccc2C(=O)NC12CCN(C(=O)c1cc(F)cc(F)c1)CC2	793
CC(C)n1cnc(S(=O)(=O)N2CCC(C(=O)Nc3ccccc3)CC2)c1	748
CCOC(=O)c1[nH]c(C)c(CCC(=O)N2CCC(C(=O)NC3CCCCCC3)CC2)c1C	823
Cc1ccc(-n2nc(N3CCN(C(=O)Nc4ccc(F)cc4)CC3)ccc2=O)cc1	803
O=C(c1nnn(Cc2ccc(Cl)cc2)c1-n1cccc1)N1CCCC1	915
CCOC(=O)CSc1nnc(CNC(=O)c2cc(OC)c(OC)c(OC)c2)n1C	601
Cc1ccc(OCC(=O)N2CCN(c3nc(CN4CCOCC4)cs3)CC2)cc1	640
CCOC(=O)C1CCC(CNC(=O)Nc2cccc(-c3nnc(-c4ccccc4)o3)c2)CC1 (centres undefined)	975
C[C@H](Cc1ccc(O)c(O)c1)[C@@H](C)Cc1ccc(O)c(O)c1	878
O=C(NCC1CCN(C(=O)COc2ccccc2)CC1)c1ccccc1C(F)(F)F	753
CN1C(=O)c2cccnc2Sc2cc(NC(=O)c3ccccc3Br)ccc21	785

SMILES	RP-LC retention time [s]
Cc1cc(C)cc(N2CC(c3nc(-c4ccccc4F)no3)CC2=O)c1 (centres undefined)	1010
O=S(=O)(c1ccc2c(c1)CCC2)N1CCc2nc(-c3ccccc3)ncc2C1	1190
Cc1ccc(C)c(N2CCN(c3ccnc(SCC(=O)NCCC4=CCCCC4)n3)CC2)c1	1090
CCn1nccc1-c1cccc(-c2noc(C3CC(=O)N(c4cccc(Cl)c4)C3)n2)c1 (centres undefined)	1090
Cn1c(=O)c2nc(S(=O)(=O)CCC(=O)Nc3ccc(F)cc3Cl)n(C)c2n(C)c1=O	758
Cc1ccc(C)c(N2CCN(S(=O)(=O)c3c(C)sc(C)c3-c3n[nH]c(C)c3C)CC2)c1	1190
O=C(Nc1ccc(F)cc1)Nc1cccn2ncnc12	763
Cc1ccc(S(=O)(=O)N2CCC(CCNC(=O)NC(C)C)CC2)cc1	796
O=C(NCc1ccco1)c1nc2ccccn2c1-c1ccccc1	783
Cc1cc(CN2CCC(CNC(=O)C(=O)Nc3cccnc3)CC2)c(C)o1	681
COc1cccc(-c2cn3ccn(-c4ccc(Br)cc4)c(=O)c3n2)c1	866
Cc1oc2ncnc(N3CCCCC3)c2c1C(=O)NCCN(Cc1ccco1)C1CCCC1	845
COC(=O)C1CCN(c2ccnc3c2c(=O)n(C)c(=O)n3C)CC1	660
Cc1nc(C)c(C(=O)N2CCC(C(=O)N3CCCCCCNC(=O)CC3)CC2)s1	602
CSc1ccc(-c2nc3cc(C)ccn3c2Nc2ccccc2C)cc1	790
COc1ccc(NC(=O)NCC23CCCC=C2N(C)C(=O)CC3)cc1 (centres undefined)	740
COc1ccc(-c2noc(C3(NC(=O)c4cccc(Cl)c4)CCCCC3)n2)cc1	1250
Cc1nc(-c2ccc3c(c2)n(CC(=O)NC2CCCCCC2)c(=O)n3C(C)C)no1	841
O=C(NCc1cccs1)NCC1CN(c2cccc(Cl)c2)C(=O)O1 (centres undefined)	731

SMILES	RP-LC retention time [s]
CC1(C(=O)NCc2ccc(F)cc2)CCCN(C(=O)Nc2ccccc2Cl)C1 (centres undefined)	941
COc1ccc(NS(=O)(=O)c2cc(-c3nnc(C(=O)N4CCCC4)o3)sc2C)cc1OC	806
COCCn1c(C)cc(O)c(C(c2ccc(Cl)cc2)N2CCC(C)CC2)c1=O (centres undefined)	644
COc1ccc(C(C)NC(=O)c2c(C)sc3ccn(CC(C)C)c(=O)c23)cc1 (centres undefined)	962
CC(C)NC(=O)Nc1cccc(Cl)c1	854
CC(=O)Nc1onc(C)c1-c1ccc(C)c(S(=O)(=O)N2CCN(C3CCCCC3)CC2)c1	629
O=C(CCC1CCCC1)Nc1ccc(CC(=O)NC2CC2)cc1	738
O=C(N[C@H]1C[C@@H]2C[C@H]1CN2C(=O)c1ccc(F)c(Cl)c1)c1ccccc1	772
CN(C)C(=O)c1cn(C2CN(C(=O)CCc3c[nH]c4ccccc34)C2)nn1	652
Cc1nc(C2CCOCC2)n(C2CCN(S(=O)(=O)c3ccc(Cl)cc3C)C2)n1 (centres undefined)	771
COc1ccc(S(=O)(=O)CCC(=O)NC(C(=O)N2CCCc3ccccc32)c2ccccc2)cc1 (centres undefined)	928
O=C(Nc1ccccc1)C1CCN(S(=O)(=O)c2cc(-c3noc(C4CC4)n3)cs2)CC1	1020
CC(C)c1ccc(S(=O)(=O)N(CC(=O)N2CCNCC2)CC2CCCO2)cc1 (centres undefined)	602
COC(=O)c1ccc(Cl)cc1NC(=O)N(C)CCc1c(C)nn(C)c1C	873
c1ccc(CNc2nc(-c3ccccc3)no2)cc1	975
O=C(NC1CCCCC1)C1CCCN(C(=O)c2ccc(F)c(F)c2)C1 (centres undefined)	825
COc1cc(C(=O)NC(C)C(=O)Nc2nc3ccccc3[nH]2)cc(OC)c1OC (centres undefined)	767
CCOc1ccccc1NC(=O)N1CCC2(CC1)NC(=O)c1cc(F)ccc1N2C	817
O=C(CCCc1ccccc1)N1CCCC1c1nc(-c2ccccc2)no1 (centres undefined)	694
